Data published in US20170002055A1, “Novel peptides and combination of peptides for use in immunotherapy against ovarian cancer and other cancers” (immatics biotechnologies GmbH, priority 2015, published 2017).

Tests used:
[1] = test system: CD8+ T cells; assay: In vitro immunogenicity: priming of CD8+ T cells with artificial APCs loaded with peptide/MHC and anti-CD28, multimer readout; assay type: cell-based, human; conditions: HLA-A*02 restricted peptides, percentage of positive wells
Source text: In order to obtain information regarding the immunogenicity of the TUMAPs of the present invention, the inventors performed investigations using an in vitro T-cell priming assay based on repeated stimulations of CD8+ T cells with artificial antigen presenting cells (aAPCs) loaded with peptide/MHC complexes and anti-CD28 antibody.
In order to perform in vitro stimulations by artificial antigen presenting cells loaded with peptide-MHC complex (pMHC) and anti-CD28 antibody, the inventors first isolated CD8+ T cells from fresh HLA-A*02 leukapheresis products via positive selection using CD8 microbeads (Miltenyi Biotec, Bergisch-Gladbach, Germany) of healthy donors obtained from the University clinics Mannheim, Germany, after informed consent.
PBMCs and isolated CD8+ lymphocytes were incubated in T-cell medium (TCM) until use consisting of RPMI-Glutamax (Invitrogen, Karlsruhe, Germany) supplemented with 10% heat inactivated human AB serum (PAN-Biotech, Aidenbach, Germany), 100 U/ml Penicillin/100 μg/ml Streptomycin (Cambrex, Cologne, Germany), 1 mM sodium pyruvate (CC Pro, Oberdorla, Germany), 20 μg/ml Gentamycin (Cambrex). 2.5 ng/ml IL-7 (PromoCell, Heidelberg, Germany) and 10 U/ml IL-2 (Novartis Pharma, Nürnberg, Germany) were also added to the TCM at this step.
Generation of pMHC/anti-CD28 coated beads, T-cell stimulations and readout was performed in a highly defined in vitro system using four different pMHC molecules per stimulation condition and 8 different pMHC molecules per readout condition.
The purified co-stimulatory mouse IgG2a anti human CD28 Ab 9.3 (Jung et al., 1987) was chemically biotinylated using Sulfo-N-hydroxysuccinimidobiotin as recommended by the manufacturer (Perbio, Bonn, Germany). Beads used were 5.6 μm diameter streptavidin coated polystyrene particles (Bangs Laboratories, Illinois, USA).
pMHC used for positive and negative control stimulations were A*0201/MLA-001 (peptide […] (SEQ ID NO. 664) from modified Melan-A/MART-1) and A*0201/DDX5-001 ([…] from DDX5, SEQ ID NO. 665), respectively.
800.000 beads/200 μl were coated in 96-well plates in the presence of 4×12.5 ng different biotin-pMHC, washed and 600 ng biotin anti-CD28 were added subsequently in a volume of 200 μl. Stimulations were initiated in 96-well plates by co-incubating […] CD8+ T cells with 2×10^5 washed coated beads in 200 μl TCM supplemented with 5 ng/ml IL-12 (PromoCell) for 3 days at 37° C. Half of the medium was then exchanged by fresh TCM supplemented with 80 U/ml IL-2 and incubating was continued for 4 days at 37° C. This stimulation cycle was performed for a total of three times. For the pMHC multimer readout using 8 different pMHC molecules per condition, a two-dimensional combinatorial coding approach was used as previously described (Andersen et al., 2012) with minor modifications encompassing coupling to 5 different fluorochromes. Finally, multimeric analyses were performed by staining the cells with Live/dead near IR dye (Invitrogen, Karlsruhe, Germany), CD8-FITC antibody clone SK1 (BD, Heidelberg, Germany) and fluorescent pMHC multimers. For analysis, a BD LSRII SORP cytometer equipped with appropriate lasers and filters was used. Peptide specific cells were calculated as percentage of total CD8+ cells. Evaluation of multimeric analysis was done using the FlowJo software (Tree Star, Oregon, USA). In vitro priming of specific multimer+ CD8+ lymphocytes was detected by comparing to negative control stimulations.

[2] = molecular target: HLA-A*02:01 (Homo sapiens, UniProt P04439, D140Y/D185E/D98H/E176V/E277Q/G131W/G231S/I119V/I121R/I166T/I218V/L300P/L318F/N151K/N90K/P208A/P217A/Q86G/Q94H/R138H/R169H/T345S); assay: MHC binding assay (UV-ligand exchange, β2m ELISA, peptide exchange yield); conditions: MHC class I binding score; binding to HLA-A*02:01 ranged by peptide exchange yield (UV-ligand exchange, β2m ELISA)
Summary of the method: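 Binding is expressed as peptide exchange yield: stabilized MHC complexes were quantified by β2m ELISA, with a 450 nm TMB read-out on streptavidin-coated plates. Complexes came from UV-ligand exchange, where UV irradiation cleaves a photolabile peptide so the candidate peptide can load.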

Row | Substance | Peptide exchange [2] | Wells positive [%] [1]
1 | 454 (KLPPPPPQA; listed as Homo sapiens) [compound 454] | “+++” (≧50 = +++) | “++” (20%-49% = ++)
2 | 460 (AMLEKNYKL; listed as Homo sapiens) [compound 460] | “++++” (≧75% = ++++) | “+” (<20% = +)
3 | 463 (SLVESHLSDQLTL; listed as Homo sapiens) [compound 463] | “+++” (≧50 = +++) | “++” (20%-49% = ++)
4 | 489 (KMWEELPEVV; listed as Homo sapiens) [compound 489] | “+++” (≧50 = +++) | “+” (<20% = +)

Continued, in another order:

Row | Peptide exchange [2] | Substance | Wells positive [%] [1]
5 | “++” (≧20% = ++) | 499 (KIFDIDEAEEGV; listed as Homo sapiens) [compound 499] | “+” (<20% = +)
6 | “++” (≧20% = ++) | 511 (FLDPYCSASV; listed as Homo sapiens) [compound 511] | “+” (<20% = +)
7 | “+++” (≧50 = +++) | 518 (KLNAEVACV; listed as Homo sapiens) [compound 518] | “++” (20%-49% = ++)
8 | “++” (≧20% = ++) | 603 (FLIEPEHVNTV; listed as Homo sapiens) [compound 603] | “+” (<20% = +)
